Article PMC7156736, “Phase 1 study of the pan-HER inhibitor dacomitinib plus the MEK1/2 inhibitor PD-0325901 in patients with KRAS-mutation-positive colorectal, non-small-cell lung and pancreatic cancer” (British Journal of Cancer, 2020)
Where two headings read alike, the source gives them in different places.

Assays:
[1] = tested on: patients with advanced cancers; parameters: method as in PMID 20215549; details: BID, continuous schedule; cited from earlier work
[2] = plasma pharmacokinetics in patients (HPLC–MS/MS, non-compartmental analysis); assay type: in vivo, human; details: for AUC(0-t): read-out: AUC0-12h PD-0325901, mean (CV%); for Cmax: read-out: Cmax PD-0325901, mean (CV%)
Protocol: For pharmacokinetic analyses, serial blood samples were obtained from all patients prior to treatment administration on day 1, and 1, 2, 3, 4, 6, 8, 12, 24, 72 and 144 h after the first dose. On day 1 of cycle 2, blood samples were drawn before and 1, 2, 3, 4, 6, 8, 12 and 24 h after administration. Plasma samples were assayed using a validated high-performance liquid chromatography– tandem mass spectrometry method (HPLC–MS/MS). Briefly, dacomitinib and PD-0325901 were extracted from plasma by protein precipitation with a mixture of acetonitrile/methanol (1:1 v/v). Compounds were chromatographically separated using a Waters Xbridge BEH Phenyl column (50 ×2.1-mm ID, 5-μm particle size), and detection was performed using an API4000 tandem mass spectrometer equipped with a turbo ion spray interface, operating in the positive ion mode. Transitions from m/z 480 to 329 and m/z 489 to 255 were monitored for the detection of dacomitinib and PD-0325901, respectively. Stable isotope-labelled internal standards were used for the quantification. The lower and upper limits of quantification were, respectively, 0.5 and 50 ng/ml for dacomitinib, and 5 and 500 ng/ml for PD-0325901. Pharmacokinetic parameters were calculated in R using an in-house-developed validated script for non-compartmental pharmacokinetic analyses (version 3.6.0).[9]

[3] = tested on: patients with KRASm CRC, NSCLC or pancreatic cancer; assay type: in vivo; details: dacomitinib QD continuous, PD-0325901 BID 21 days on/7 days off
From the text: . The starting doses were based on previous data from single-agent Phase 1 studies with both compounds, taking into account the potential for synergistic toxicity. […]. Dose-escalation decisions were based on safety evaluation of all evaluable patients, performed after completion of the first treatment cycle. Patients were considered evaluable for the dose-determining part of this study if at least one cycle of study treatment was completed, with the minimum safety evaluation conducted, and at least one administration of both drugs received, or if dose-limiting toxicity (DLT) had occurred during the first cycle. If one out of three patients experienced a DLT, the number of patients treated at that dose level was expanded to a maximum of six. […] Patients were continuing study treatment until disease progression, unacceptable toxicity or investigator/patient decision to discontinue.
Safety was monitored throughout the treatment by physical examination, laboratory assessments, electrocardiography, ophthalmic evaluation and collection of adverse events. Adverse events were recorded according to the Common Terminology Criteria for Adverse Events version 4.0. All adverse events that were possible, probable or definite related to study drug were considered as study/treatment related. […]

[4] = Dose-level 2: dacomitinib 15 mg QD + PD-0325901 3 mg BID, Cycle 1 Day 1, n = 6
[5] = human, plasma, oral, 6 mg, All 6 mg doses, Cycle 1 Day 1, n = 14
[6] = human, plasma, oral, 6 mg, All 6 mg doses, Cycle 2 Day 1 or last day of concomitant use, n = 6
[7] = human, plasma, oral, Dose-level 1: dacomitinib 30 mg QD + PD-0325901 2 mg BID, Cycle 1 Day 1, n = 6
[8] = human, plasma, oral, Dose-level 1: dacomitinib 30 mg QD + PD-0325901 2 mg BID, Cycle 2 Day 1, n = 6
[9] = human, plasma, oral, Dose-level 2: dacomitinib 15 mg QD + PD-0325901 3 mg BID, Cycle 2 Day 1, n = 5
[10] = human, plasma, oral, Dose-level 3: dacomitinib 15 mg QD + PD-0325901 4 mg BID, Cycle 1 Day 1, n = 2
[11] = human, plasma, oral, Dose-level 3: dacomitinib 15 mg QD + PD-0325901 4 mg BID, Cycle 2 Day 1, n = 2
[12] = human, plasma, oral, Dose-level 4: dacomitinib 15 mg QD + PD-0325901 5 mg BID, Cycle 1 Day 1, n = 3
[13] = human, plasma, oral, Dose-level 4: dacomitinib 15 mg QD + PD-0325901 5 mg BID, Cycle 2 Day 1, n = 4
[14] = human, plasma, oral, Dose-level 5: dacomitinib 15 mg QD + PD-0325901 6 mg BID, Cycle 1 Day 1, n = 8
[15] = human, plasma, oral, Dose-level 5: dacomitinib 15 mg QD + PD-0325901 6 mg BID, Cycle 2 Day 1, n = 5
[16] = human, plasma, oral, Dose-level 6: dacomitinib 30 mg (4/3) QD + PD-0325901 6 mg BID, Cycle 1 Day 1, n = 3
[17] = human, plasma, oral, Dose-level 6: dacomitinib 30 mg (4/3) QD + PD-0325901 6 mg BID, last day of concomitant use of both drugs, n = 1
[18] = human, plasma, oral, Dose-level 7: dacomitinib 30 mg (5/2) QD + PD-0325901 6 mg (5/2) BID, Cycle 1 Day 1, n = 3
[19] = human, plasma, oral, Dose-level 7: dacomitinib 30 mg (5/2) QD + PD-0325901 6 mg (5/2) BID, last day of concomitant use of both drugs, n = 2
[20] = human, plasma, oral, Dose-level 8: dacomitinib 30 mg (5/2) QD + PD-0325901 5 mg (5/2) BID, Cycle 1 Day 1, n = 4
[21] = human, plasma, oral, Dose-level 8: dacomitinib 30 mg (5/2) QD + PD-0325901 5 mg (5/2) BID, last day of concomitant use of both drugs, n=2
[22] = human, plasma, oral, Dose-level -1: dacomitinib 15 mg QD + PD-0325901 2 mg BID, Cycle 1 Day 1, n = 4
[23] = human, plasma, oral, Dose-level -1: dacomitinib 15 mg QD + PD-0325901 2 mg BID, Cycle 2 Day 1, n = 3
[24] = patients, combination treatment

Q: What does the source list for `O=C(NOC[C@H](O)CO)c1ccc(F)c(F)c1Nc1ccc(I)cc1F` [PD-0325901]?
A: formal single-agent RP2D [1]: 10 mg; tmax PD-0325901, mean ([2]; All 6 mg doses, Cycle 1 Day 1, n = 14): 1.5 h; tmax PD-0325901, mean ([2]; All 6 mg doses, Cycle 2 Day 1 or last day of concomitant use, n = 6): 2.2 h; tmax PD-0325901, mean ([2]; Dose-level 1: dacomitinib 30 mg QD + PD-0325901 2 mg BID, Cycle 1 Day 1, n = 6): 1.2 h; tmax PD-0325901, mean ([2]; Dose-level 1: dacomitinib 30 mg QD + PD-0325901 2 mg BID, Cycle 2 Day 1, n = 6): 1.5 h; AUC0-12h PD-0325901, mean (CV%) [2, 4]: 273 (15) ng*h/ml; tmax PD-0325901, mean [2, 4]: 1.2 h; tmax PD-0325901, mean ([2]; Dose-level 2: dacomitinib 15 mg QD + PD-0325901 3 mg BID, Cycle 2 Day 1, n = 5): 2.2 h; tmax PD-0325901, mean ([2]; Dose-level 4: dacomitinib 15 mg QD + PD-0325901 5 mg BID, Cycle 1 Day 1, n = 3): 1.4 h; tmax PD-0325901, mean ([2]; Dose-level 5: dacomitinib 15 mg QD + PD-0325901 6 mg BID, Cycle 1 Day 1, n = 8): 1.4 h; tmax PD-0325901, mean ([2]; Dose-level 5: dacomitinib 15 mg QD + PD-0325901 6 mg BID, Cycle 2 Day 1, n = 5): 1.2 h; tmax PD-0325901, mean ([2]; Dose-level 6: dacomitinib 30 mg (4/3) QD + PD-0325901 6 mg BID, Cycle 1 Day 1, n = 3): 1.3 h; tmax PD-0325901, mean ([2]; Dose-level 7: dacomitinib 30 mg (5/2) QD + PD-0325901 6 mg (5/2) BID, Cycle 1 Day 1, n = 3): 1.3 h; tmax PD-0325901, mean ([2]; Dose-level 8: dacomitinib 30 mg (5/2) QD + PD-0325901 5 mg (5/2) BID, Cycle 1 Day 1, n = 4): 1.5 h; tmax PD-0325901, mean ([2]; Dose-level -1: dacomitinib 15 mg QD + PD-0325901 2 mg BID, Cycle 1 Day 1, n = 4): 1.3 h; tmax PD-0325901, mean ([2]; Dose-level -1: dacomitinib 15 mg QD + PD-0325901 2 mg BID, Cycle 2 Day 1, n = 3): 1.1 h; plasma concentration versus target level (16.5 ng/ml) ([2]; PD-0325901 doses of 5 and 6 mg, during the entire dose interval): exceeded the target level; increase of exposure with dose ([2]; across dose levels): approximately dose-proportionally; AUC(0-t) [2, 5]: 706 ng·h/mL; Cmax [2, 5]: 227 ng/mL; AUC(0-t) [2, 6]: 954 ng·h/mL; Cmax [2, 6]: 217 ng/mL; AUC(0-t) [2, 7]: 188 ng·h/mL; Cmax [2, 7]: 68.7 ng/mL; AUC(0-t) [2, 8]: 210 ng·h/mL; Cmax [2, 8]: 58.3 ng/mL; Cmax ([2]; human, plasma, oral, Dose-level 2: dacomitinib 15 mg QD + PD-0325901 3 mg BID, Cycle 1 Day 1, n = 6): 85 ng/mL; AUC(0-t) [2, 9]: 279 ng·h/mL; Cmax [2, 9]: 73.8 ng/mL; AUC(0-t) [2, 10]: 452 ng·h/mL; Cmax [2, 10]: 106 ng/mL; AUC(0-t) [2, 11]: 376 ng·h/mL; Cmax [2, 11]: 125 ng/mL; AUC(0-t) [2, 12]: 552 ng·h/mL; Cmax [2, 12]: 179 ng/mL; AUC(0-t) [2, 13]: 638 ng·h/mL; Cmax [2, 13]: 229 ng/mL; AUC(0-t) [2, 14]: 822 ng·h/mL; Cmax [2, 14]: 262 ng/mL; AUC(0-t) [2, 15]: 855 ng·h/mL; Cmax [2, 15]: 242 ng/mL; AUC(0-t) [2, 16]: 635 ng·h/mL; Cmax [2, 16]: 192 ng/mL; AUC(0-t) [2, 17]: 1340 ng·h/mL; Cmax [2, 17]: 254 ng/mL; AUC(0-t) [2, 18]: 635 ng·h/mL; Cmax [2, 18]: 192 ng/mL; AUC(0-t) [2, 19]: 406 ng·h/mL; Cmax [2, 19]: 56 ng/mL; Tmax ([2]; human, plasma, oral, Dose-level 7: dacomitinib 30 mg (5/2) QD + PD-0325901 6 mg (5/2) BID, last day of concomitant use of both drugs, n = 2, read-out: tmax PD-0325901, mean): 4.5 h; AUC(0-t) [2, 20]: 463 ng·h/mL; Cmax [2, 20]: 134 ng/mL; AUC(0-t) [2, 21]: 667 ng·h/mL; Cmax [2, 21]: 155 ng/mL; AUC(0-t) [2, 22]: 160 ng·h/mL; Cmax [2, 22]: 43.7 ng/mL; AUC(0-t) [2, 23]: 145 ng·h/mL; Cmax [2, 23]: 47.7 ng/mL; half-life ([2]; human, plasma, oral, patients, combination treatment, read-out: half-life, range): 300 to 594 min; accumulation after multiple doses (AUC and Cmax) [2, 24]: minimal accumulation; half-life, mean [2, 24]: 7.7 h; recommended Phase 2 dose (RP2D) / established maximum dose level in the combination with continuous dacomitinib dosing [3]: 6 mg
